Measurements from US20100016232A1, “Treatment Of Inflammatory Diseases With Mammal Beta Defensins” (Novozymes A/S, priority 2008, published 2010).
Marks after values point to notes of the source that are not given here. Where no end group is shown, it is not given here.

How the values were obtained:
[1] = test system: IL-23, human CD14+ monocyte-derived dendritic cells; experiment: IL-23 in supernatants of human CD14+ monocyte-derived dendritic cells, ELISA; assay type: cell-based
Protocol: The DCs were prepared according to a modified protocol originally described by Romani et al. Briefly, peripheral blood mononuclear cells (PBMCs) were purified from buffy coats of healthy donors by centrifugation over a Ficoll-pague (GE-healthcare) gradient. Monocytes were isolated from PBMC by positive selection of CD14+ cells by magnetic beads (Dynal, Invitrogen) according to the manufacturer's instructions. The CD14+ monocytes were cultured in 6-well plates in RPMI/2% Human AB Serum recombinant human recombinant granulocyte-macrophage colony-stimulating factor (GM-CSF, 20 ng/ml) and IL-4 (20 ng/ml) (PeproTech) for 6 days, replenishing the medium/cytokines after 2 and 5 days.
Cell culture supernatants were collected and stored at −80° C. Amounts of IL-23 was measured by standard sandwich ELISA using commercially available antibodies and standards according to the manufacturer's protocols (eBioscience).

[2] = test system: IL-1β and IL-8 and IL-6, dendritic cells; experiment: Cytokines from dendritic cells stimulated with a cytokine cocktail; assay type: cell-based, human; conditions: cytokine cocktail together with hBD2 vs cocktail alone, results not shown
Excerpt: Obviously no effect on TNF could be analyzed, due to stimulation with TNF-α (results not shown).

[3] = test system: collagen-induced arthritis (CIA) in the mouse; experiment: Collagen-induced rheumatoid arthritis model, clinical arthritis score; assay type: in vivo; set-up: key: each paw scored 0-4 by ascending severity; total summed over paws
Protocol: All animals were subjected on Day 0 of the study (study commencement) to an intradermal injection into the tail of 0.1 ml Type II Collagen/CFA emulsion (200 μg collagen per mouse) under light Isoflurane anesthesia, using a plastic syringe. The location of injection was at an approximate caudal distance of about 1 cm from the base of the tail. A collagen challenge (200 μg/mouse) was presented to the animals by IP injection of collagen and PBS on Day 21.
Treatments were commenced on day 14 of the study and continued once daily throughout. All surviving mice were terminated on study day 42.
Mice were examined for signs of arthritogenic responses in peripheral joints on study day 0, 14, 21 and thereafter five times weekly until termination of the study. Arthritis reactions were reported for each paw according to a 0-4 scale in ascending order of severity as shown below:
In accordance with Home Office regulations mice with a total clinical score of equal to or greater than 12 were culled due to arthritis severity. The clinical score of these mice at termination was carried forward in the analysis for the remainder of the study in order that the data was not artificially skewed by the removal of high scoring mice.

[4] = test system: DSS-induced colitis in the mouse; experiment: 10-day DSS-induced colitis, colon histological score (Example 5); assay type: in vivo; conditions: day 10
Excerpt: Animals were divided into 5 experimental groups.
Their colons were removed and their length and weight measured after exclusion of the caecum.
Two sections (proximal and distal) of colon were taken from each animal and preserved in neutral buffered formalin for subsequent histological analysis (haematoxylin and eosin staining) according to the following scoring system:
Two sections (proximal and distal) of colon were taken from each animal, processed for histological analysis (haematoxylin and eosin staining) and scored by a blind observer according to the histological scoring system described above.

[5] = test system: TNF production in supernatants from immature dendritic cells; experiment: TNF production, immature dendritic cells (MUTZ-3 derived); assay type: cell-based, human
Protocol: To generate a dendritoid cell line, the human myeloid leukaemia cell lines MUTZ-3 (1×10^5 cells/ml) was differentiated for 7 days in the presence of rhGM-CSF (150 ng/ml) and rhIL-4 (50 ng/ml) into immature DCs. Medium was exchanged every 2-3 days.
Cytokine production in supernatants was measured by flow cytometry with a human inflammation cytometric bead array (CBA) according to manufacturer's instructions (BD) on a FACSarray flow cytometer. The following cytokines were measured: IL-8, IL-1β, IL-10, TNF, IL-12 p70, IL-6. In some experiments, cytokines were measured by ELISA kits from R&D systems (IL-10, TNF-α, IL-1β) according to the manufacturer' instruction.

Substance: hBD2: human beta defensin 2, SEQ ID NO:2; produced recombinantly in E. coli (Example 1); hBD2 of Tables 16-18 was prepared by chemical synthesis (GIGDPVTCLKSGAICHPVFCPRRYKQIGTCGLPGTKCCKKP; ends and bridges not checked; cysteine pairing not given here; listed as Homo sapiens)
- IL-23 ([1]; LPS (100 ng/ml) and IFN-γ (20 ng/ml), hBD2 1 μg/ml): 3833 pg/mL
- IL-23 ([1]; LPS (100 ng/ml) and IFN-γ (20 ng/ml), hBD2 10 μg/ml): 3308 pg/mL
- IL-23 ([1]; LPS (100 ng/ml) and IFN-γ (20 ng/ml), hBD2 30 μg/ml): 3042 pg/mL
- IL-23 ([1]; LPS (100 ng/ml) and IFN-γ (20 ng/ml), hBD2 100 μg/ml): 2145 pg/mL
- IL-23 ([1]; Unstimulated, hBD2 10 μg/ml): 451 pg/mL
- IL-1β and IL-8 and IL-6 [2]: downregulating effect
- Mean total arthritis score, peak ([3]; 0.1 mg/kg i.v. once daily from day 14 (Group E), study day 40): 9.0±0.77
- Mean total arthritis score, peak ([3]; 1 mg/kg i.v. once daily from day 14 (Group D), study day 41): 5.2±1.11
- Mean total arthritis score, peak ([3]; 10 mg/kg i.v. once daily from day 14 (Group C), study day 40): 5.0±1.04
- Mean Arthritic Score ([3]; Group C, 10 mg/kg IV once daily, Study Day 0): 0.0
- Mean Arthritic Score ([3]; Group C, 10 mg/kg IV once daily, Study Day 14): 1.7
- Mean Arthritic Score ([3]; Group C, 10 mg/kg IV once daily, Study Day 21): 3.1
- Mean Arthritic Score ([3]; Group C, 10 mg/kg IV once daily, Study Day 22): 4.3
- Mean Arthritic Score ([3]; Group C, 10 mg/kg IV once daily, Study Day 23): 3.3
- Mean Arthritic Score ([3]; Group C, 10 mg/kg IV once daily, Study Day 26): 4.1
- Mean Arthritic Score ([3]; Group C, 10 mg/kg IV once daily, Study Day 27): 4.1
- Mean Arthritic Score ([3]; Group C, 10 mg/kg IV once daily, Study Day 28): 4.1
- Mean Arthritic Score ([3]; Group C, 10 mg/kg IV once daily, Study Day 29): 4.4
- Mean Arthritic Score ([3]; Group C, 10 mg/kg IV once daily, Study Day 30): 4.9
- Mean Arthritic Score ([3]; Group C, 10 mg/kg IV once daily, Study Day 33): 4.8
- Mean Arthritic Score ([3]; Group C, 10 mg/kg IV once daily, Study Day 34): 4.9
- Mean Arthritic Score ([3]; Group C, 10 mg/kg IV once daily, Study Day 35): 4.9
- Mean Arthritic Score ([3]; Group C, 10 mg/kg IV once daily, Study Day 36): 4.8
- Mean Arthritic Score ([3]; Group C, 10 mg/kg IV once daily, Study Day 37): 4.7
- Mean Arthritic Score ([3]; Group C, 10 mg/kg IV once daily, Study Day 40): 5.0
- Mean Arthritic Score ([3]; Group C, 10 mg/kg IV once daily, Study Day 41): 4.8*
- Mean Arthritic Score ([3]; Group D, 1 mg/kg IV once daily, Study Day 0): 0.0
- Mean Arthritic Score ([3]; Group D, 1 mg/kg IV once daily, Study Day 14): 0.6
- Mean Arthritic Score ([3]; Group D, 1 mg/kg IV once daily, Study Day 21): 2.1
- Mean Arthritic Score ([3]; Group D, 1 mg/kg IV once daily, Study Day 22): 2.3
- Mean Arthritic Score ([3]; Group D, 1 mg/kg IV once daily, Study Day 23): 2.0
- Mean Arthritic Score ([3]; Group D, 1 mg/kg IV once daily, Study Day 26): 2.0
- Mean Arthritic Score ([3]; Group D, 1 mg/kg IV once daily, Study Day 27): 2.0
- Mean Arthritic Score ([3]; Group D, 1 mg/kg IV once daily, Study Day 28): 2.3
- Mean Arthritic Score ([3]; Group D, 1 mg/kg IV once daily, Study Day 29): 2.4
- Mean Arthritic Score ([3]; Group D, 1 mg/kg IV once daily, Study Day 30): 2.7
- Mean Arthritic Score ([3]; Group D, 1 mg/kg IV once daily, Study Day 33): 4.0
- Mean Arthritic Score ([3]; Group D, 1 mg/kg IV once daily, Study Day 34): 4.1
- Mean Arthritic Score ([3]; Group D, 1 mg/kg IV once daily, Study Day 35): 4.0
- Mean Arthritic Score ([3]; Group D, 1 mg/kg IV once daily, Study Day 36): 4.1
- Mean Arthritic Score ([3]; Group D, 1 mg/kg IV once daily, Study Day 37): 4.2
- Mean Arthritic Score ([3]; Group D, 1 mg/kg IV once daily, Study Day 40): 4.7*
- Mean Arthritic Score ([3]; Group D, 1 mg/kg IV once daily, Study Day 41): 5.2
- Mean Arthritic Score ([3]; Group E, 0.1 mg/kg IV once daily, Study Day 0): 0.0
- Mean Arthritic Score ([3]; Group E, 0.1 mg/kg IV once daily, Study Day 14): 1.2
- Mean Arthritic Score ([3]; Group E, 0.1 mg/kg IV once daily, Study Day 21): 3.2
- Mean Arthritic Score ([3]; Group E, 0.1 mg/kg IV once daily, Study Day 22): 3.6
- Mean Arthritic Score ([3]; Group E, 0.1 mg/kg IV once daily, Study Day 23): 3.2
- Mean Arthritic Score ([3]; Group E, 0.1 mg/kg IV once daily, Study Day 26): 3.7
- Mean Arthritic Score ([3]; Group E, 0.1 mg/kg IV once daily, Study Day 27): 4.1
- Mean Arthritic Score ([3]; Group E, 0.1 mg/kg IV once daily, Study Day 28): 4.4
- Mean Arthritic Score ([3]; Group E, 0.1 mg/kg IV once daily, Study Day 29): 5.0
- Mean Arthritic Score ([3]; Group E, 0.1 mg/kg IV once daily, Study Day 30): 5.9
- Mean Arthritic Score ([3]; Group E, 0.1 mg/kg IV once daily, Study Day 33): 7.3
- Mean Arthritic Score ([3]; Group E, 0.1 mg/kg IV once daily, Study Day 34): 7.8
- Mean Arthritic Score ([3]; Group E, 0.1 mg/kg IV once daily, Study Day 35): 8.0
- Mean Arthritic Score ([3]; Group E, 0.1 mg/kg IV once daily, Study Day 36): 8.2
- Mean Arthritic Score ([3]; Group E, 0.1 mg/kg IV once daily, Study Day 37): 8.7
- Mean Arthritic Score ([3]; Group E, 0.1 mg/kg IV once daily, Study Day 40): 9.0
- Mean Arthritic Score ([3]; Group E, 0.1 mg/kg IV once daily, Study Day 41): 8.8
- Histology Score Distal Colon ([4]; 0.1 mg/kg i.v. daily): 3.67
- Histology Score Distal Colon ([4]; 1 mg/kg i.v. daily): 4.13
- Histology Score Distal Colon ([4]; 10 mg/kg i.v. daily): 4.78
- TNF ([5]; LPS 1.5 μg/ml, hBD2 1 μg/ml): 18.04 pg/mL
- TNF ([5]; LPS 1.5 μg/ml, hBD2 10 μg/ml): 13.8 pg/mL
- TNF ([5]; LPS 1.5 μg/ml, hBD2 100 μg/ml): 7.66 pg/mL
- TNF ([5]; LTA 1.5 μg/ml, hBD2 1 μg/ml): 0.00 pg/mL
- TNF ([5]; LTA 1.5 μg/ml, hBD2 10 μg/ml): 2.76 pg/mL
- TNF ([5]; LTA 1.5 μg/ml, hBD2 100 μg/ml): 5.22 pg/mL
- TNF ([5]; Medium, hBD2 1 μg/ml): 4.64 pg/mL
- TNF ([5]; Medium, hBD2 10 μg/ml): 1.89 pg/mL
- TNF ([5]; Medium, hBD2 100 μg/ml): 0.00 pg/mL
